Experimental data as given in patent publication US12065512B2, “Cyclic peptide and a medicament, external preparation and cosmetic comprising said cyclic peptide” (Igisu Co., Ltd., priority 2015, dated 2024).
“Also recorded” adds a separate entry of the source. Positions of bridges follow the written chain, without caps; N, C: chain ends. No end group written: not given here.

Experiments:
Type in all cases: in vivo, human
[1] = tested on: subjects suffering various dermatitis; assay: B ring gel formulation versus gel base by two-sided application in dermatitis; settings: right side B ring, left side gel base; atopic dermatitis or chronic eczema
Description: 3.2 Comparing B Ring Gel Formulation to Gel Base by Two-Sided Application For subjects suffering various dermatitis, either B ring gel formulation or the gel base was applied to the affected site, and changes in symptoms before and after the application were observed (Table below).

[2] = tested on: skin conditions of subjects; assay: Skin-improving (cosmetic) effect of gel formulation applied to face
Experimental: 4.1.1 Confirming Skin-Improving Effect (Comparing B Ring Gel Formulation to BNP Gel Formulation)
The B ring gel formulation or BNP gel formulation was applied to subjects. The B ring gel formulation was applied on the right cheek or eye of each subject, the BNP gel formulation on the left cheek or eye, and changes in skin conditions were observed and compared (Table below). The changes in skin conditions were determined based on physical sensory evaluation by the subject and our objective observation as physicians.
Table below summarizes examples in which B ring gel formulation was applied without applying two-sided. The changes in skin conditions were determined by similar method as described above.
4.1.2 Confirming Skin-Improving Effect (Comparing B Ring Gel Formulation to Gel Base)
In order to examine the presence or absence of the contribution by the gel base to the effects of B ring gel formulation and BNP gel formulation, three subjects were administered B ring gel formulation on their right face and the gel base on the left, and changes in skin conditions on the subject's faces were observed (Table below).

[3] = tested on: normal subjects who had symptoms of roughened lips; assay: Mucosal condition of roughened lips upon application of B ring gel formulation; settings: 1 application
Experimental: The B ring gel formulation was applied to normal subjects who had symptoms of roughened lips, and changes in mucosal condition were observed (Table below). The changes in mucosal conditions were determined based on physical sensory evaluation by the subject and our objective observation as physicians.

[4] = tested on: normal subjects who had symptoms of scalp/hair; assay: Scalp/hair condition upon application of B ring gel formulation
Experimental: 4.3 Observation on scalp/hair condition upon application of B ring gel formulation. The B ring gel formulation was applied to normal subjects who had symptoms of scalp/hair, and changes in conditions of scalp and hair were observed (Table below). The changes in scalp/hair were determined based on physical sensory evaluation by the subject and our objective observation as physicians.

[5] = tested on: skin condition of the subjects; assay: Skin condition upon using bath agent comprising B ring; settings: bath in 37 to 41° C. hot water with 0.01 μM, once a day for 14 days
Experimental: 4.4 Observation on Skin Condition Upon Using Bath Agent Comprising B Ring
Subjects were given bath in 37 to 41° C. hot water comprising B ring dissolved at 0.01 μM (100 ml of 20 μM B ring solution dissolved in 200 L hot water) once a day for 14 days, and skin condition of the subjects was compared to the case of hot water alone (Table 14). The changes in skin conditions were determined based on physical sensory evaluation by the subject and our objective observation as physicians.

[6] = tested on: symptoms associated to various alopecia; assay: Therapeutic effect on alopecia: gel formulation applied to decalvant site; settings: 1 μmol, 1 application/day, continued; male alopecia, right side
Experimental: 5. Confirming Therapeutic Effect on Alopecia Either B ring gel formulation or BNP gel formulation was applied, and their effects on symptoms associated to various alopecia were observed (Table below). The changes in symptoms were determined based on physical sensory evaluation by the subject and our objective observation as physicians.

[7] = tested on: nasal cavity; assay: Cyclic peptides with amino acid replacement: nasal effect (formulations A to E = 3, 15, 30, 100, 500 μg/ml in physiological saline, 0.1 ml); settings: formulation C (30 μg/ml in physiological saline), once a day, 0.1 ml applied to each nasal cavity; subject with allergic rhinitis
Experimental: Next, cyclic peptides with some replaced amino acid were subjected to following examination in order to confirm their effect. The methods for preparing the above cyclic peptide and confirming amino acid sequence of the prepared peptide were same as the method for preparing the cyclic peptide as described above and Mass spectroscopy method.
9.3 Confirming Nasal Effect
The obtained cyclic peptide was prepared in physiological saline at 3, 15, 30, 100 or 500 μg/ml, and 0.1 ml each was applied to nasal cavity. Each of formulations A to E in the table indicates the concentration of the cyclic peptide at 3, 15, 30, 100 or 500 μg/ml, respectively. The absence of the effect upon the application of physiological saline without the peptide confirmed the effect was not a placebo effect.

## Cys-Phe-Gly-Arg-Lys-Met-Asp-Arg-Ile-Ser-Ser-Ser-Ser-Gly-Leu-Gly-Cys (CFGRKMDRISSSSGLGC; disulfide 1-17; ends not checked) [B ring]
[1]
  Post-application symptoms: Flare remitted soon after application. After; also recorded: Flare started to fade soon after application,; also recorded: Flare remitted soon after application,; also recorded: Flare and pigmentation removed 2.5 min after
[2]; compared to site where BNP gel formulation had been applied, FIG. 1
  Skin-improving effect, summary: has a skin moisturizing effect and is capable of improving skin texture
[2]; concentration not printed (about 1 μM), right face, gel base on the left
  Post-application symptoms (skin condition): 1 min after application, skin tingling sensation
[3]; 0.5 μmol
  Post-application symptoms (lips, mucosal condition): 3 min after application, lips became moisturized.
[3]; 1 μmol
  Post-application symptoms (lips, mucosal condition): 2 min after application, cracks on mouth corner were remitted and Skin became moisturized soon after application. After 2 min,
[3]; 2 μmol
  Post-application symptoms (lips, mucosal condition): After 2 min, lips were full and soft, and wrinkles were less; also recorded: After 2 min, lips were full, soft and moisturized, and wrinkles
[4]; 1 μmol, 1 application/day (5 days, 3 weeks or continued), daily for 3 weeks
  Post-application symptoms (scalp/hair): Hair growth was stimulated, and an increase in hair volume
[4]; 1 μmol, 1 application/day (5 days, 3 weeks or continued), daily for 5 days
  Post-application symptoms (scalp/hair): A decrease in falling hair was observed, showing an effect
[4]; 1 μmol, 1 application/day (5 days, 3 weeks or continued), daily, continued post partum
  Post-application symptoms (scalp/hair): growth was stimulated, improving thinning of hair.
[4]; 2 μmol, 1 application
  Post-application symptoms (scalp/hair): After 2 min, itches were removed, scalp seborrhea and; also recorded: After 1 min. itches were removed. After 2 min, scalp; also recorded: After 2 min, itches were removed, scalp seborrhea was improved
[5]
  Changes in subjective symptoms: Remission of itch and pain; also recorded: Relief of pain; also recorded: Itches after bath was remitted
  Post-application symptoms: ameliorating effect on miliaria, cracked or chapped skin; also recorded: Remission of desiccatinn; also recorded: Remission of flare and milaria; also recorded: Cracks gradually became; also recorded: Gradual remission of erythema
[6]
  Post-application symptoms (alopecia): 7 weeks after application, hair became elastic and formulation exhibited more remarkable hair-

## SEQ ID NO 34 (CFGRKMDRISSSSGVGC; disulfide 1-17)
[7]
  Itches after application: No irritating symptoms.
